This passage reports EC50 results from patent US9409931B1, “3-O-acyl-ingenol analogues” (LEO LABORATORIES LIMITED, priority 2015, dated 2016).

In general, EC50 refers to the midpoint of the concentration-response curve.

In test [1] the target is Human Protein Kinase C betaII (PKCbII) (Homo sapiens (Human), UniProt P05771). Briefly: PKCbetaII activity assay. Type of test: biochemical. As to conditions: γ-33P-ATP, normalized to the effect of DMSO, read-out: PKC-β binding Rel EC50. Here is the method: On the day at experiment Human Protein Kinase C betaII (PKCbII, Millipore cat#14-496) was incubated with 20 mM HEPES pH 7.4, 0.03% Triton X-100, 0.1 mM CaCl2, 0.1 mg/mL phosphatidylserine, 0.1 mg/mL histone H1, 10 mM MgAcetate. Amount of enzyme in each assay was 1.8 ng (final assay volume is 25 μL). The compounds were then diluted to 500 μM, and then serially diluted in 100% DMSO in semi-logarithmic decrements for 12 points. 0.5 μL of each concentration, in duplicate, was pipetted into a dry 96 well assay plate using a TIP Mosquito. Control and blank wells received 0.5 μL of 100% DMSO instead of compound. 14.5 μl kinase in assay buffer was added to each well. The assay was started with the addition of 10 μL ATP containing γ-33P-ATP] (specific activity approx. 500 cpm/pmol), to a final assay concentration of 70 μM. The reaction was allowed to proceed at room temperature for 40 minutes before the addition of 5 μL 3% ortho-phosphoric acid. Blank wells were acid blanks, and had 5 μL 3% ortho-phosphoric acid added before the addition of ATP. 10 μL of the stopped reaction products was transferred to a P30 filtermat which was then washed 4 times in 75 mM ortho-phosphoric acid, and once in methanol before drying. The filter was read by liquid scintillation counting using a Wallac Trilux. Rel EC50 (relative EC50) denotes the concentration of test compound that produces a response half-way between the fitted top and the fitted bottom of the curve when activities are normalized to the effect of DMSO.
Sequence of Human Protein Kinase C betaII (PKCbII) (P05771 other isoform, or with tags, fused parts or gaps): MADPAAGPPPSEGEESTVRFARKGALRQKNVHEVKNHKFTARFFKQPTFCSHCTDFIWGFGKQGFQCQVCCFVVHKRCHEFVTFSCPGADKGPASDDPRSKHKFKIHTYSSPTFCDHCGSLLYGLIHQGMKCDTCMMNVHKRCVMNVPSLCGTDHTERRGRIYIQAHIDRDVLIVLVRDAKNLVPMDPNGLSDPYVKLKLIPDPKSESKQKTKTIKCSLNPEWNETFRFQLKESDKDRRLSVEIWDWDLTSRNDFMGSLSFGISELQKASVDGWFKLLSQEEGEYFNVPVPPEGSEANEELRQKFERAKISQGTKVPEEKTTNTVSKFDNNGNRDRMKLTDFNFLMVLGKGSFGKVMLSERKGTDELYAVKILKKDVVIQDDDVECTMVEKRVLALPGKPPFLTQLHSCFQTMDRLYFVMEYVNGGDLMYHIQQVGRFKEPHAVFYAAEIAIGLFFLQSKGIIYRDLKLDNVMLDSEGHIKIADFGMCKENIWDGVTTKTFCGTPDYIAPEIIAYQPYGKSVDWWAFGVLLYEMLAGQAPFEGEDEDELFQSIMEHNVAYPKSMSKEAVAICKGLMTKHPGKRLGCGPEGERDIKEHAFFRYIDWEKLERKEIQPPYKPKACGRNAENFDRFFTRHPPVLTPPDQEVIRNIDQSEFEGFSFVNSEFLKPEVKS

In test [2] the test system is PMN's (polymorphonuclear leukocytes). The test is described as follows: Neutrophil oxidative burst. The class given is cell-based. As to conditions: Leukocyte, 40 min; normalized to positive control 5×10^−7 M PEP0005; 40 min incubation at RT; read-out: Neutrophil oxidative burst Rel EC50. Here is the method: PMN's (polymorphonuclear leukocytes) were isolated and purified from fresh buffy coats by sequential sedimentation, density centrifugation and lysis of contaminating erythrocytes. Buffy coats were incubated with 2% methocel for 30-45 min to differentially sediment red blood cells. The leukocyte-rich supernatant was transferred to lymphoprep tubes to remove mononuclear cells by density centrifugation (400×g, 30 min). The pellet was resuspended and any remaining erythrocytes lysed using 0.2% NaCl for 30 sec before restoring isotonicity by the addition of 1.2% NaCl. This step was repeated until the cell pellet appears relatively free of red blood cells. Cells were resuspended in DPBS (Dulbecco's Phosphate Buffered Saline) (w.o. Ca^2+, Mg^2+) and the concentration adjusted to 1.4×10^6 cells/ml in HBSS (Hanks Balanced Salt solution) (w Ca^2+, Mg^2+) containing 0.1% BSA (Bovine Serum Albumin) and 5 mM glucose just prior to assay initiation. Titrated reference and test compounds were pre-mixed with HE (Hydroethidine) (10 μM final assay concentration) before addition to 96-well plates containing 2.5×10^5 cells. Following 40 min incubation at RT, changes in the respiratory burst was estimated by measuring fluorescence at 579 nm (excitation: 485 nm) using an Envision plate reader.
Test compound titration curves were fitted to a four-parameter sigmoidal curve after normalizing the effect of the test compound to the effect of the positive control (5×10^−7 M PEP0005). Rel EC50 (relative EC50) denotes the concentration of test compound producing an effect that is midway between the fitted top and bottom.

For test [3], the target named is Human Protein Kinase C delta (PKCδ) (Homo sapiens (Human), UniProt Q05655). Briefly: PKC δ binding assay. As to conditions: kinase activation, γ-33P-ATP, normalized to the effect of DMSO; read-out: PKC-δ binding Rel EC50. Type of test: biochemical. On the procedure: On the day at experiment Human Protein Kinase C delta (PKCδ, Millipore cat#14-504) was diluted in 20 mM HEPES, 0.03% Triton X-100. Amount of enzyme in each assay was 7.25 ng (final assay volume is 25 μL). All compounds for testing were diluted to 1 mM in 100% DMSO as an intermediary dilution. The compounds were then diluted further to 50 μM, and then serially diluted in 100% DMSO in semi-logarithmic decrements for 12 points. 0.5 μL of each concentration, in duplicate, was pipetted into a dry 96 well assay plate using a TTP Mosquito. Control and blank wells received 0.5 μL of 100% DMSO instead of compound. The assay was built with the addition of 14.5 μL of assay mixture, containing appropriately diluted enzyme and 20 mM HEPES pH 7.4, 0.03% Triton X-100, 0.05 mg/mL phosphatidylserine, and 50 μM ERMRPRKRQGSVRRRV. The assay was started with the addition of 10 μL ATP containing γ-33P-ATP] (specific activity approx. 500 cpm/pmol), to a final assay concentration of 15 μM. The reaction was allowed to proceed at room temperature for 40 minutes before the addition of 5 μL 3% ortho-phosphoric acid. Blank wells were acid blanks, and had 5 μL 3% ortho-phosphoric acid added before the addition of ATP. 10 μL of the stopped reaction products was transferred to a P30 filtermat which was then washed 4 times in 75 mM ortho-phosphoric acid, and once in methanol before drying. The filter was read by liquid scintillation counting using a Wallac Trilux. Rel EC50 (relative EC50) denotes the concentration of test compound that produces a response half-way between the fitted top and the fitted bottom of the curve when activities are normalized to the effect of DMSO.
Sequence of Human Protein Kinase C delta (PKCδ) (Q05655 whole entry): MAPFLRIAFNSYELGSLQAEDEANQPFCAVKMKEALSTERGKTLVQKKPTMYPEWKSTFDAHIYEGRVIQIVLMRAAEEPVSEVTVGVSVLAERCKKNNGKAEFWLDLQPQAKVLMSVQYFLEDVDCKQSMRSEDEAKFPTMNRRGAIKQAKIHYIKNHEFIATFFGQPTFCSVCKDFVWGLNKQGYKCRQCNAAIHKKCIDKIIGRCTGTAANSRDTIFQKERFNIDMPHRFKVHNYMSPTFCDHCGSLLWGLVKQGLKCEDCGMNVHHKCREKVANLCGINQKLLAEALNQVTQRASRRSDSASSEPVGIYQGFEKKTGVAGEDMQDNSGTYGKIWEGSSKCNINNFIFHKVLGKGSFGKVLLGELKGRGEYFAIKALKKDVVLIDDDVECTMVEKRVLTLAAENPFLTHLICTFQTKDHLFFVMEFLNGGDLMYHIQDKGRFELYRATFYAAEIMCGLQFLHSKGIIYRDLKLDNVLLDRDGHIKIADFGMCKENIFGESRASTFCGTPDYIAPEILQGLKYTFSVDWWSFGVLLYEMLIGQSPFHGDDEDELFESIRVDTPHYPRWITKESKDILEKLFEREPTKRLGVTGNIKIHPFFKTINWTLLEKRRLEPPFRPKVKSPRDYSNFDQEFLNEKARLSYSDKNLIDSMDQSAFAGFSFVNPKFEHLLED

For test [4], the system named is Primary human epidermal keratinocytes, HeKa. Briefly: HeKa cytokine release (IL-8). As to conditions: normalized to positive control 1.5×10^−7 M PEP0005, 6 h incubation, read-out: HeKa cytokine release (IL-8) Rel EC50. The class given is cell-based. On the procedure: Primary human epidermal keratinocytes, HeKa, were seeded (10.000 cells/well) in 96-well plates the day before the assay. Test compounds were diluted in DMSO (dimethyl sulfoxide) and further diluted in assay medium and pipetted into wells of 96 well-plates containing HeKa cells. The plates were incubated for 6 h at 37° C. in humidified air with 5% CO2. Plates were centrifuged briefly to spin down cells at 4° C., the supernatant was removed and analysed by Meso Scale Discovery (MSD) 4-spot cytokine assay (Pro-inflammatory II Ultra Sensitive kit, MSD, MD, USA). The MSD assay employs a sandwich immunoassay format where capture antibodies are coated in a patterned array on the bottom of the wells of a 4-Spot-Multi-MSD plate. Standard samples were incubated in the MULTI-SPOT plates as well, and the cytokine (IL-8) binds to its corresponding capture antibody spot. The cytokine level was quantitated on a SECTOR™ Imager using a cytokine-specific Detection Antibody labelled with MSD SULFO-TAG™ reagent.
Test compound titration curves were fitted to a four-parameter sigmoidal curve after normalizing the effect of the test compound to the effect of the positive control (1.5×10^−7 M PEP0005). Rel EC50 (relative EC50) denotes the concentration of test compound producing an effect that is midway between the fitted top and bottom.

`CC1=C[C@]23C(=O)[C@@H](C=C(CO)[C@@H](O)[C@@H]2[C@H]1OC(=O)C1(C)CCCCC1)[C@H]1[C@@H](C[C@H]3C)C1(C)C` [Compound 7, 4-deoxyingenol 3-(1-methyl-cyclohexanecarboxylate)]: the EC50 is 0.2 nM in test [1], 9 nM in test [2], 154 nM in test [3] and 35 nM in test [4].

As for `CC1=C[C@]23C(=O)[C@@H](C=C(CO)C[C@]2(O)[C@H]1OC(=O)C1(C)CCCCC1)[C@H]1[C@@H](C[C@H]3C)C1(C)C` [Compound 6, 5-deoxyingenol 3-(1-methyl-cyclohexanecarboxylate)], the concentration for a half-maximal effect (EC50) in test [1] came to 0.8 nM; in test [2], 7 nM; in test [3] it was 80 nM; in test [4], 26 nM.

For the compound `CC1=C[C@@]23CC[C@@H]4[C@H]([C@H](C=C(CO)[C@@H](O)[C@]2(O)[C@H]1OC(=O)C1(C)CCCCC1)C3=O)C4(C)C` [Compound 8, 11-desmethyl-ingenol 3-(1-methyl-cyclohexanecarboxylate)], the EC50 in test [1] was determined as 0.1 nM; in test [2], 4 nM; in test [3], 7 nM; in test [4], 4 nM.

Consider `CC1=C[C@]23C(=O)[C@@H](C=C(CO)C[C@@H]2[C@H]1OC(=O)C1(C)CCCCC1)[C@H]1[C@@H](C[C@H]3C)C1(C)C` [Compound 5, 4,5-dideoxyingenol 3-(1-methyl-cyclohexanecarboxylate)], for which the EC50 in test [1] was determined as 6 nM; in test [2] it was 13 nM; in test [3], 1110 nM; in test [4], 130 nM.
